What was measured:
[1] = Contact angles by tilting plane method (sessile drop on tilted surface); format: physicochemical; settings: sessile drop of water or buffered aqueous medium (50 mM sodium phosphate, pH 6.8) on tilted surface of the substance
Source text: The tilting plane method of measuring contact angles involves slowly tilting a surface or plane of a substance the contact angle of which is to be determined until a sessile drop on the plane begins to move in the downhill direction. At that time the angle between the plane and the downhill tangent of the drop at the plane is the advancing contact angle, and the angle between the plane and the uphill tangent of the drop at the plane is the receding contact angle. A procedure for determining the contact angles of a therapeutic component is as follows. A small batch of Compound III weighing approximately 30 g is micronized in a ball mill for three days using 5-mm stainless steel balls. The resulting particles have an average diameter of 8 μm. A 200-mg sample of the micronized Compound III is compressed into a wafer 12 mm in diameter and 2 mm thick using a Carver press. The wafer is then glued on to a plastic board. Separately, a 10 milliliter aqueous solution is prepared containing 50 mM sodium phosphate buffer at pH 6.8. A drop of a blue food dye is added to the solution to aid visualization. A 40 μL drop of the blue aqueous solution is placed on top of the Compound III wafer on a plastic board resting at a horizontal position. The plastic board and the wafer are then slowly tilted from their horizontal position in front of a continuous shooting camera. The process stops after the blue aqueous drop has run down the wafer. The images that show the shapes of the liquid drop just prior to it starting to run down the wafer are analyzed and the contact angles measured. Alternatively, both the advancing and receding contact angles can be measured using a KSV instrument (model CAM 200) with a tilt stage. The instrument is fully computer controlled, and it captures the video image and performs full analysis of the advancing and receding contact angles.

[2] = Solubility in water at 25° C.; format: physicochemical; settings: for solubility: water; for solubility in water: unit given as mg
[3] = Dissolution in aqueous solution buffered to pH 6.8 over time (FIG. 1, FIG. 2); format: physicochemical; settings: 100 mg sample with excipients in buffer pH 6.8, FIG. 1 curves
Procedure: Samples A and B are in the form of particles having an average diameter of about 150 microns. Samples C and D are in the form of particles having an average diameter of about 10 microns.
An aqueous solution buffered with a buffer to a pH of 6.8 is provided. A quantity of a mixture containing conventional pharmaceutically acceptable excipients is provided. In addition, a quantity of sodium dodecyl sulfate is provided.
A mixture of Sample A (100 mg) and excipients is formed and is placed in 900 ml of the aqueous solution.
A mixture of Sample C (100 mg) and excipients is formed and is placed in another 900 ml of the aqueous solution. Test samples of each of the aqueous solutions are taken at various times after each of the mixtures containing Compound III (Samples A and C) is placed in the aqueous solution. Each of these test samples is analyzed for Compound III concentration. Using these test results over a period of 240 minutes, relationships between the percentage of Sample A and Sample C dissolved and time are developed. These tests are run a total of 3 times (n=3).
Each of Samples B and D is tested in a substantially similar way. However, when testing Samples B and […], 1% based on weight of the mixture of Sample and excipient mixture, of sodium dodecyl sulfate is included in the mixture. Each of these tests is run a total of 3 times. […]

[4] = at doses 10-fold greater than the dose required to produce a 50% reduction in one or more symptoms; cited from earlier work

Row | SMILES | advancing contact angle [1] | receding contact angle [1] | solubility [2] | rate of dissolution (comparison in words) [3] | solubility in water [2] | sedation [4]
1 | S=c1[nH]cc(CC2CC=CC2)[nH]1 [Compound III] | 116 ° | 73 ° | < 500 µg/mL | relatively reduced rate of dissolution in water |  | 
2 | O=c1[nH]cc(CC2Cc3ccc(F)cc3C2)[nH]1 (centres unmarked) [Compound II] | greater than 90 ° | greater than 45 ° |  |  | less than 0.5 mg | 
3 | Cc1cccc([C@@H](C)c2c[nH]c(=S)[nH]2)c1C [Compound IV] | greater than 90 ° | greater than 45 ° |  |  | less than 0.5 mg | 
4 | O=C1c2ccccc2CCC1Cc1c[nH]c(=S)[nH]1 (centres unmarked) [Compound I] | greater than 90 ° | greater than 45 ° | < 500 µg/mL |  |  | 
5 | Cc1cccc([C@H](C)c2c[nH]cn2)c1C [dexmeditomidine] |  |  |  |  |  | completely sedating

Reference: patent US20090252802A1, “Compositions Including Relatively Water Insoluble/Unwettable Drugs And Methods For Using Same” (priority 2006, published 2009)
